From US9504669B2, “Spliceostatin analogs and methods for their preparation” (PFIZER INC., priority 2012, dated 2016) come the findings set out here.

Some results are limits rather than exact numbers.

Assay [1] relates to N87 (gastric cancer) cells. Kind of assay: In vitro cell assay (MTS cell viability), N87. It is filed as cell-based. The conditions noted are these: 96 h, free compounds (natural products and synthetic analogs); cell viability 96 hours after treatment. As for the experimental part: (§1) Target expressing (BT474 (breast cancer), N87 (gastric cancer), HCC1954 (breast cancer), MDA-MB-361-DYT2 (breast cancer)) or non-expressing (MDA-MB-468) cells were seeded in 96-well cell culture plates for 24 hours before treatment. Cells were treated with 3-fold serially diluted antibody-drug conjugates or free compounds (i.e., no antibody conjugated to the drug) in duplicate at 10 concentrations. Cell viability was determined by CellTiter 96® AQueous One Solution Cell Proliferation MTS Assay (Promega, Madison Wis.) 96 hours after treatment. Relative cell viability was determined as percentage of untreated control. IC50 values were calculated using a four parameter logistic model #203 with XLfit v4.2 (IDBS, Guildford, Surry, UK). The potency ranged upward from 0.0002 nm. Similar procedures and techniques were employed.

In assay [2] the test system is MDA-MB-361-DYT2 (breast cancer) cells. Kind of assay: In vitro cell assay (MTS cell viability), MDA-MB-361-DYT2. Type of assay: cell-based. To be noted: 96 h, free compounds (natural products and synthetic analogs); cell viability 96 hours after treatment. As for the experimental part:
as §1

In general, IC50 refers to the midpoint of a concentration-inhibition curve. Low values mean greater potency in that assay, high ones weaker potency in that assay. Take `CC(=O)O[C@@H](C)/C=C\C(=O)N[C@@H]1C[C@H](C)[C@H](C/C=C(C)/C=C/[C@H]2O[C@H](CC(=O)N[C@H]3C[C@@H](O)C3)C[C@@]3(CO3)[C@@H]2O)O[C@@H]1C` [#B142, (2S,3Z)-5-{[(2R,3R,5S,6S)-6-{(2E,4E)-5-[(3R,4R,5R,7S)-4-hydroxy-7-{2-[(cis-3-hydroxycyclobutyl)amino]-2-oxoethyl}-1,6-dioxaspiro[2.5]oct-5-yl]-3-methylpenta-2,4-dien-1-yl}-2,5-dimethyltetrahydro-2H-pyran-3-yl]amino}-5-oxopent-3-en-2-yl acetate]: the values for the IC50 in assay [1] and in assay [2] were 11.2 nM and 55.5 nM, respectively.

With `CNNC(=O)C[C@@H]1C[C@@]2(CO2)[C@H](O)[C@@H](/C=C/C(C)=C/C[C@@H]2O[C@H](C)[C@H](NC(=O)/C=C\[C@H](C)OC(C)=O)C[C@@H]2C)O1` [#B143, (2S,3Z)-5-({(2R,3R,5S,6S)-6-[(2E,4E)-5-{(3R,4R,5R,7S)-4-hydroxy-7-[2-(2-methylhydrazinyl)-2-oxoethyl]-1,6-dioxaspiro[2.5]oct-5-yl}-3-methylpenta-2,4-dien-1-yl]-2,5-dimethyltetrahydro-2H-pyran-3-yl}amino)-5-oxopent-3-en-2-yl acetate], the IC50 in assay [1] was found to be 2.43 nM; in assay [2], 9.51 nM.

On to `CC(=O)O[C@@H](C)/C=C\C(=O)N[C@@H]1C[C@H](C)[C@H](C/C=C(C)/C=C/[C@H]2O[C@H](CC(=O)N(C)N)C[C@@]3(CO3)[C@@H]2O)O[C@@H]1C` [#B144, (2S,3Z)-5-({(2R,3R,5S,6S)-6-[(2E,4E)-5-{(3R,4R,5R,7S)-4-hydroxy-7-[2-(1-methylhydrazinyl)-2-oxoethyl]-1,6-dioxaspiro[2.5]oct-5-yl}-3-methylpenta-2,4-dien-1-yl]-2,5-dimethyltetrahydro-2H-pyran-3-yl}amino)-5-oxopent-3-en-2-yl acetate], for which the figures for the IC50 in assay [1] and in assay [2] were 0.982 nM and 6.1 nM, respectively.

For the compound `CNN(C)C(=O)C[C@@H]1C[C@@]2(CO2)[C@H](O)[C@@H](/C=C/C(C)=C/C[C@@H]2O[C@H](C)[C@H](NC(=O)/C=C\[C@H](C)OC(C)=O)C[C@@H]2C)O1` [#B145, (2S,3Z)-5-({(2R,3R,5S,6S)-6-[(2E,4E)-5-{(3R,4R,5R,7S)-7-[2-(1,2-dimethylhydrazinyl)-2-oxoethyl]-4-hydroxy-1,6-dioxaspiro[2.5]oct-5-yl}-3-methylpenta-2,4-dien-1-yl]-2,5-dimethyltetrahydro-2H-pyran-3-yl}amino)-5-oxopent-3-en-2-yl acetate], the IC50 in assay [1] came out at 0.408 nM; in assay [2], 2.03 nM.

Take `COC(=O)C[C@@H]1C[C@@]2(CO2)C[C@@H](/C=C/C(C)=C/C[C@@H]2O[C@H](C)[C@H](NC(=O)/C=C\[C@H](C)OC(=O)CCCSC)C[C@@H]2C)O1` [#B149, (2S,3Z)-5-{[(2R,3R,5S,6S)-6-{(2E,4E)-5-[(3S,5S,7S)-7-(2-methoxy-2-oxoethyl)-1,6-dioxaspiro[2.5]oct-5-yl]-3-methylpenta-2,4-dien-1-yl}-2,5-dimethyltetrahydro-2H-pyran-3-yl]amino}-5-oxopent-3-en-2-yl 4-(methylsulfanyl)butanoate]: the IC50 in assay [1] and in assay [2] was over 100 nM in each case.

Regarding `CC(=O)O[C@@H](C)/C=C\C(=O)N[C@@H]1C[C@H](C)[C@H](C/C=C(C)/C=C/[C@H]2O[C@H](CC(=O)NN(C)C)C[C@@]3(CO3)[C@@H]2O)O[C@@H]1C` [#B177, (2S,3Z)-5-({(2R,3R,5S,6S)-6-[(2E,4E)-5-{(3R,4R,5R,7S)-7-[2-(2,2-dimethylhydrazinyl)-2-oxoethyl]-4-hydroxy-1,6-dioxaspiro[2.5]oct-5-yl}-3-methylpenta-2,4-dien-1-yl]-2,5-dimethyltetrahydro-2H-pyran-3-yl}amino)-5-oxopent-3-en-2-yl acetate], the IC50 amounted to 1.61 nM in assay [1] and 5.65 nM in assay [2].

In the case of `CC(=O)O[C@@H](C)/C=C\C(=O)N[C@@H]1C[C@H](C)[C@H](C/C=C(C)/C=C/[C@H]2O[C@H](CC(=O)N3CCCCN3)C[C@@]3(CO3)[C@@H]2O)O[C@@H]1C` [#B179, (2S,3Z)-5-({(2R,3R,5S,6S)-6-[(2E,4E)-5-{(3R,4R,5R,7S)-4-hydroxy-7-[2-oxo-2-(tetrahydropyridazin-1(2H)-yl)ethyl]-1,6-dioxaspiro[2.5]oct-5-yl}-3-methylpenta-2,4-dien-1-yl]-2,5-dimethyltetrahydro-2H-pyran-3-yl}amino)-5-oxopent-3-en-2-yl acetate], the IC50 in assay [1] is 0.299 nM; in assay [2] it was 1.29 nM.

Take `CC(/C=C/[C@H]1O[C@H](CC(=O)NN)C[C@@]2(CO2)[C@@H]1O)=C\C[C@@H]1O[C@H](C)[C@H](NC(=O)/C=C\[C@H](C)O)C[C@@H]1C` [#B209, (2Z,4S)—N-[(2R,3R,5S,6S)-6-{(2E,4E)-5-[(3R,4R,5R,7S)-7-(2-hydrazinyl-2-oxoethyl)-4-hydroxy-1,6-dioxaspiro[2.5]oct-5-yl]-3-methylpenta-2,4-dien-1-yl}-2,5-dimethyltetrahydro-2H-pyran-3-yl]-4-hydroxypent-2-enamide]: the IC50 in assay [1] is 60.6 nM; in assay [2], over 100 nM.

For the compound `COC(=O)C[C@@H]1C[C@@]2(CO2)[C@H](O)[C@@H](/C=C/C(C)=C/C[C@@H]2O[C@H](C)[C@H](NC(=O)/C=C\[C@H](C)OC)C[C@@H]2C)O1` [#B229, methyl [(3R,5S,7R,8R)-8-hydroxy-7-{(1E,3E)-5-[(2S,3S,5R,6R)-5-{[(2Z,4S)-4-methoxypent-2-enoyl]amino}-3,6-dimethyltetrahydro-2H-pyran-2-yl]-3-methylpenta-1,3-dien-1-yl}-1,6-dioxaspiro[2.5]oct-5-yl]acetate], the IC50 in assay [1] was 3.6 nM; in assay [2], 9.14 nM.

On to `COC(=O)C[C@@H]1C[C@@]2(CO2)[C@H](O)[C@@H](/C=C/C(C)=C/C[C@@H]2O[C@H](C)[C@H](NC(=O)/C=C\[C@H](C)O)C[C@@H]2C)O1` [#B235, methyl [(3R,5S,7R,8R)-8-hydroxy-7-{(1E,3E)-5-[(2S,3S,5R,6R)-5-{[(2Z,4S)-4-hydroxypent-2-enoyl]amino}-3,6-dimethyltetrahydro-2H-pyran-2-yl]-3-methylpenta-1,3-dien-1-yl}-1,6-dioxaspiro[2.5]oct-5-yl]acetate], for which the IC50 stood at 16.4 nM in assay [1] and 36.8 nM in assay [2].

Consider `COC(=O)C[C@@H]1C[C@@]2(CO2)[C@H](OC)[C@@H](/C=C/C(C)=C/C[C@@H]2O[C@H](C)[C@H](NC(=O)/C=C\[C@H](C)OC)C[C@@H]2C)O1` [#B240, methyl [(3R,5S,7R,8R)-8-methoxy-7-{(1E,3E)-5-[(2S,3S,5R,6R)-5-{[(2Z,4S)-4-methoxypent-2-enoyl]amino}-3,6-dimethyltetrahydro-2H-pyran-2-yl]-3-methylpenta-1,3-dien-1-yl}-1,6-dioxaspiro[2.5]oct-5-yl]acetate], for which the IC50 is 9.79 nM in assay [1] and 5.05 nM in assay [2].

For `CC(=O)O[C@@H](C)/C=C\C(=O)N[C@@H]1C[C@H](C)[C@H](C/C=C(C)/C=C/[C@H]2O[C@H](CNC(N)=O)C[C@@]3(CO3)[C@@H]2O)O[C@@H]1C` [#B241, (2S,3Z)-5-({(2R,3R,5S,6S)-6-[(2E,4E)-5-{(3R,4R,5R,7S)-7-[(carbamoylamino)methyl]-4-hydroxy-1,6-dioxaspiro[2.5]oct-5-yl}-3-methylpenta-2,4-dien-1-yl]-2,5-dimethyltetrahydro-2H-pyran-3-yl}amino)-5-oxopent-3-en-2-yl acetate], the 50% inhibitory concentration (IC50) came out at 21.3 nM in assay [1] and 43.6 nM in assay [2].
